By IC50 is commonly meant the point on the concentration scale where inhibition reaches its midpoint.

Consider 74 compounds from patent publication US10035801B2, “Pyrazolo compounds and uses thereof” (CONSTELLATION PHARMACEUTICALS, INC., priority 2013, dated 2018).

T1 sequence (P29375 whole entry): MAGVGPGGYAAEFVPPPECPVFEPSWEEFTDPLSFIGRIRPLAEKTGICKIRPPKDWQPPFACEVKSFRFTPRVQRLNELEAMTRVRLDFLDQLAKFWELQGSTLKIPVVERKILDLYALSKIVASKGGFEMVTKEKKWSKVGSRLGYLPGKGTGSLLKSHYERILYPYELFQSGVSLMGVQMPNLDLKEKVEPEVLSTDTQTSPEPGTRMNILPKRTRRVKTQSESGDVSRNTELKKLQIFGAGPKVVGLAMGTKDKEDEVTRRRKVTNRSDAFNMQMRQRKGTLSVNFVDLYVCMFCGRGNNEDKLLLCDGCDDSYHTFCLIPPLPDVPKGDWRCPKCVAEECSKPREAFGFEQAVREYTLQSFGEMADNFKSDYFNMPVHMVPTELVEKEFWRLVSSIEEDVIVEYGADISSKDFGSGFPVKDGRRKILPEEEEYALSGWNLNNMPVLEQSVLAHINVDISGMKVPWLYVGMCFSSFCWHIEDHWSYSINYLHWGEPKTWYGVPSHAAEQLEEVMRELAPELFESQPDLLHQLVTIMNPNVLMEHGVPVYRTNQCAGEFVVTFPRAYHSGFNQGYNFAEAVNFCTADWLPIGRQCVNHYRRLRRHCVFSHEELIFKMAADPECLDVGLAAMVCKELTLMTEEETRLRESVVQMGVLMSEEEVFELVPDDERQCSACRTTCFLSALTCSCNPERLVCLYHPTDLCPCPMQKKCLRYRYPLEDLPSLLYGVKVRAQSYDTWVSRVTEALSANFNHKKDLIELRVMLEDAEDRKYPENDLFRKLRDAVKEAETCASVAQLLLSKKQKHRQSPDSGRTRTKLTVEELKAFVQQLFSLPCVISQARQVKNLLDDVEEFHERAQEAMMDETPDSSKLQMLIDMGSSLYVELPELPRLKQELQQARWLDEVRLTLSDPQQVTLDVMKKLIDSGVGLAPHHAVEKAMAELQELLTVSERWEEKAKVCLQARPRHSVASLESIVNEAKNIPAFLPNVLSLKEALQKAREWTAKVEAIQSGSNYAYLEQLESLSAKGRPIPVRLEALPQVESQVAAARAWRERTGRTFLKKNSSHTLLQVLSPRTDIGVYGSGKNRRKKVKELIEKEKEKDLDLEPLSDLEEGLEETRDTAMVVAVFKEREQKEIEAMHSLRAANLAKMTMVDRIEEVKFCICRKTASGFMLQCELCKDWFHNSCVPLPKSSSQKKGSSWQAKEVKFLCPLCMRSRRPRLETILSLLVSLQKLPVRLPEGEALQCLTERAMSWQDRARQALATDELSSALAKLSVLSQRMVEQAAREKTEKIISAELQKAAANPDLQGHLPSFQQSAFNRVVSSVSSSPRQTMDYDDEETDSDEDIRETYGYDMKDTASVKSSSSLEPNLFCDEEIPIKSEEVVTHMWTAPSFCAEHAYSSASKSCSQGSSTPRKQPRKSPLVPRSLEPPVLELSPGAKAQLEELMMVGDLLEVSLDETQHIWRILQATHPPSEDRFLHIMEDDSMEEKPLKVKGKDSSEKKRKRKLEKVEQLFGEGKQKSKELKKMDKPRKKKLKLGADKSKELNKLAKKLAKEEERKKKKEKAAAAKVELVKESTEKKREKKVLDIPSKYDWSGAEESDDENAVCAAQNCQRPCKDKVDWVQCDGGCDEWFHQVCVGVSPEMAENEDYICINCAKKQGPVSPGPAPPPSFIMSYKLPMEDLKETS

One experiment addresses T1, KDM5A (Homo sapiens, UniProt P29375).
T1 construct: Full length KDM5A enzyme was expressed and purified inhouse; made in house
Put plainly: KDM5 enzyme assay, KDM5A HTRF (Example 463). The format is biochemical.
Conditions: not given
Background: Time-resolved FRET reads energy transfer from a long-lived donor to a nearby acceptor.
As for `COc1cc(-c2[nH]c3c(C#N)cnn3c(=O)c2C(C)C)ccn1` [Example 277], the IC50 amounted to 32 nM.

Still in this experiment, the particulars now being: compounds of Examples 1-432; read-out: Example 463 Assay KDM5A HTRF IC50.
Take `CCc1c(C(=O)NC)n(C)c2c(C#N)cnn2c1=O` [Example 27, 3-cyano-6-ethyl-N,4-dimethyl-7-oxo-4,7-dihydropyrazolo[1,5-a]pyrimidine-5-carboxamide]: the IC50 is 3900 nM.

For the compound `CC(C)c1c(-c2ccn(C)c2)[nH]c2c(C#N)cnn2c1=O` [Example 211], the IC50 came to 24 nM.

On to `Cc1cc(-c2[nH]c3c(C#N)cnn3c(=O)c2C(C)C)ccc1C(F)(F)F` [Example 302], for which the IC50 came out at 52 nM.

For `CC(C)c1c(-c2ccc(F)c(C(=O)N3CCCC3)c2)[nH]c2c(C#N)cnn2c1=O` [Example 108], the IC50 stood at 28 nM.

On to `CC(C)c1c(-c2ccc(Oc3ccccc3)cc2)[nH]c2c(C#N)cnn2c1=O` [Example 312], for which the IC50 stood at 28 nM.

On to `CC(C)c1c(-c2cccc(CO)c2)[nH]c2c(C#N)cnn2c1=O` [Example 317], for which the IC50 was 25 nM.

As for `C=CC(C)c1c(-c2ccccc2)[nH]c2c(C#N)cnn2c1=O` (centres unmarked) [Compound 404], the IC50 is 18 nM.

Turning to `CCc1c(-c2cccc(Nc3ccc(F)cc3)c2)[nH]c2c(C#N)cnn2c1=O` [Example 41, 6-Ethyl-5-(3-((4-fluorophenyl)amino)phenyl)-7-oxo-4,7-dihydropyrazolo[1,5-a]pyrimidine-3-carbonitrile], the IC50 was 19 nM.

As for `CC(C)c1c(-c2cnn(Cc3cccs3)c2)[nH]c2c(C#N)cnn2c1=O` [Example 155], the IC50 was found to be 9.8 nM.

As to `N#Cc1cnn2c(=O)c(I)c(-c3ccccc3)[nH]c12` [Example 234], the IC50 came out at 15 nM.

Turning to `CCc1c(-c2ccco2)[nH]c2c(C#N)cnn2c1=O` [Example 57], the IC50 turned out to be 5.7 nM.

For `CC(C)c1c(-c2ccc(C3CC3)cc2)[nH]c2c(C#N)cnn2c1=O` [Example 331], the IC50 was 27 nM.

For `CC(C)c1c(-c2ccccc2F)[nH]c2c(C#N)cnn2c1=O` [Example 66], the IC50 was 14 nM.

In the case of `CC(C)c1c(C2=CCCN(C)C2)[nH]c2c(C#N)cnn2c1=O` [Example 295], the IC50 came to 39 nM.

`CC(C)c1c(-c2cc3ccccc3o2)[nH]c2c(C#N)cnn2c1=O` [Example 130]: the IC50 is 4.5 nM.

With `CCc1ccc(-c2[nH]c3c(C#N)cnn3c(=O)c2C(C)C)o1` [Example 132], the IC50 is 7.2 nM.

Turning to `CC(C)c1c(-c2ccnn2C(C)C)[nH]c2c(C#N)cnn2c1=O` [Compound 415], the IC50 turned out to be 77 nM.

Consider `CC(C)c1c(-c2cc(C3CC3)co2)[nH]c2c(C#N)cnn2c1=O` [Example 58], for which the IC50 turned out to be 7.3 nM.

In the case of `CCCCn1cc(-c2[nH]c3c(C#N)cnn3c(=O)c2C(C)C)cn1` [Compound 365], the IC50 came to 18 nM.

For the compound `CC(C)c1c(-c2cnn(C3CCOCC3)c2)[nH]c2c(C#N)cnn2c1=O` [Example 254], the IC50 was 33 nM.

With `CCc1c(-c2cc[nH]c2)[nH]c2c(C#N)cnn2c1=O` [Example 202], the IC50 is 6 nM.

As for `CC(C)c1c(-c2cccc(-c3cn[nH]c3)c2)[nH]c2c(C#N)cnn2c1=O` [Compound 383], the IC50 came out at 31 nM.

With `CC(C)c1c(-c2ccc(=O)[nH]c2)[nH]c2c(C#N)cnn2c1=O` [Compound 393], the IC50 is 12 nM.

For `CCc1c(-c2cccc(-c3ccccc3)c2)n(C)c2c(C#N)cnn2c1=O` [Example 176], the IC50 came to 52 nM.

Take `CC(C)c1c(-c2ccc(C3CC3)c(C(F)(F)F)c2)[nH]c2c(C#N)cnn2c1=O` [Example 259]: the IC50 amounted to 43 nM.

As for `CC(C)c1c(-c2ccc(N3CCOCC3)cc2)[nH]c2c(C#N)cnn2c1=O` [Example 305], the IC50 is 47 nM.

As to `Cc1cc(C)cc(-c2[nH]c3c(C#N)cnn3c(=O)c2C(C)C)c1` [Compound 398], the half-inhibitory concentration (IC50) is 41 nM.

For the compound `CC(C)c1c(-c2cccc(Oc3ccccc3)c2)[nH]c2c(C#N)cnn2c1=O` [Example 136], the IC50 was determined as 9 nM.

For the compound `CC(C)c1c(-c2cnn(CC(F)F)c2)[nH]c2c(C#N)cnn2c1=O` [Compound 378], the IC50 was 14 nM.

As for `N#Cc1cnn2c(=O)cc(-c3cccc(Br)c3)[nH]c12` [Example 215], the IC50 came to 410 nM.

In the case of `COC(=O)c1c(-c2ccccc2)[nH]c2c(C#N)cnn2c1=O` [Example 112], the IC50 stood at 330 nM.

As for `CC(C)c1c(-c2cnn(CCNc3ccccc3)c2)[nH]c2c(C#N)cnn2c1=O` [Compound 366], the IC50 came to 18 nM.

On to `CCc1c(C)n(CC2CC2)c2c(C#N)cnn2c1=O` [Example 193], for which the IC50 was 860 nM.

Consider `Cc1nc(Cn2cc(-c3[nH]c4c(C#N)cnn4c(=O)c3C(C)C)cn2)cs1` [Example 241], for which the IC50 was determined as 13 nM.

Turning to `CC(C)c1c(-c2ccc3c(c2)CC(C)(C)O3)[nH]c2c(C#N)cnn2c1=O` [Example 260], the IC50 came to 36 nM.

`CC(C)c1c(-c2cnn(Cc3cccnc3)c2)[nH]c2c(C#N)cnn2c1=O` [Example 128]: the IC50 is 16 nM.

Regarding `CC(C)c1c(-c2cnn(C(F)F)c2)[nH]c2c(C#N)cnn2c1=O` [Example 160], the IC50 came out at 19 nM.

As to `CC(C)c1c(-c2cccc(N3CCC(c4ccccc4)C3=O)c2)[nH]c2c(C#N)cnn2c1=O` (centres unmarked) [Compound 424], the IC50 stood at 8 nM.

Take `CC(C)c1c(-c2cnn(Cc3ccc(F)c(F)c3)c2)[nH]c2c(C#N)cnn2c1=O` [Example 342]: the IC50 turned out to be 9 nM.

For `Cc1cc(-c2[nH]c3c(C#N)cnn3c(=O)c2C(C)C)ccc1OC(F)(F)F` [Example 258], the IC50 is 44 nM.

For `CC(C)c1c(-c2cnn(Cc3ccc(-c4ccccc4)cc3)c2)[nH]c2c(C#N)cnn2c1=O` [Example 135], the IC50 was found to be 5.8 nM.

For `C=CCc1c(-c2cnn(C(C)C)c2)[nH]c2c(C#N)cnn2c1=O` [Compound 425], the IC50 worked out at 16 nM.

In the case of `CCc1c(-c2cccc(/C=C/c3ccccc3)c2)[nH]c2c(C#N)cnn2c1=O` [Compound 426], the IC50 is 23 nM.

Regarding `CNC(=O)c1cc(-c2[nH]c3c(C#N)cnn3c(=O)c2C(C)C)cn1C(C)C` [Compound 416], the IC50 was found to be 48 nM.

Turning to `CCc1c(-c2cccc(NC(=O)OC(C)(C)C)c2)[nH]c2c(C#N)cnn2c1=O` [Example 233], the IC50 turned out to be 20 nM.

Turning to `CC(C)c1c(-c2cnn(C(C)C)c2F)[nH]c2c(C#N)cnn2c1=O` [Example 14, 5-(5-Fluoro-1-isopropyl-1H-pyrazol-4-yl)-6-isopropyl-7-oxo-4,7-dihydropyrazolo[1,5-a]pyrimidine-3-carbonitrile], the IC50 came to 5.3 nM.

In the case of `C=Cc1cccc(Cn2cc(-c3[nH]c4c(C#N)cnn4c(=O)c3C(C)C)cn2)n1` [Example 333], the IC50 was determined as 12 nM.

Take `CC(C)c1c(-c2cnn(C3CCOC3)c2)[nH]c2c(C#N)cnn2c1=O` (centres unmarked) [Example 280]: the 50% inhibitory concentration (IC50) is 15 nM.

`C#CC(C)c1c(-c2ccccc2)[nH]c2c(C#N)cnn2c1=O` (centres unmarked) [Example 235]: the IC50 is 14 nM.

For the compound `CCOc1cccc(-c2[nH]c3c(C#N)cnn3c(=O)c2C(C)C)c1` [Example 316], the IC50 worked out at 34 nM.

Take `CCc1c(-c2nc(C)no2)[nH]c2c(C#N)cnn2c1=O` [Example 28, 6-ethyl-5-(3-methyl-1,2,4-oxadiazol-5-yl)-7-oxo-4H-pyrazolo[1,5-a]pyrimidine-3-carbonitrile]: the IC50 worked out at 18 nM.

In the case of `COc1ccc(-c2[nH]c3c(C#N)cnn3c(=O)c2C(C)C)cc1` [Example 68], the IC50 was found to be 13 nM.

For the compound `CCc1c(-c2ncc(-c3ccccc3)o2)[nH]c2c(C#N)cnn2c1=O` [Example 32, 6-ethyl-7-oxo-5-(5-phenyloxazol-2-yl)-4,7-dihydropyrazolo[1,5-a]pyrimidine-3-carbonitrile], the IC50 turned out to be 15 nM.

For `CC(C)c1c(-c2ccc(C3CC3)o2)[nH]c2c(C#N)cnn2c1=O` [Example 52], the IC50 worked out at 5.8 nM.

Regarding `CC(C)c1c(-c2ccc(C#N)cc2)[nH]c2c(C#N)cnn2c1=O` [Example 67], the IC50 was 10 nM.

Turning to `CCn1ccc(-c2[nH]c3c(C#N)cnn3c(=O)c2C(C)C)n1` [Compound 420], the IC50 came to 23 nM.

In the case of `CCc1c(-c2cccc(N3CCC(C)(C)C3=O)c2)[nH]c2c(C#N)cnn2c1=O` [Compound 422], the IC50 stood at 29 nM.

As to `CC(C)c1c(-c2ccc(C(F)(F)F)c(C(F)(F)F)c2)[nH]c2c(C#N)cnn2c1=O` [Example 301], the IC50 turned out to be 170 nM.

With `C=CC(=O)N1CCC=C(c2[nH]c3c(C#N)cnn3c(=O)c2C(C)C)C1` [Example 296], the IC50 is 47 nM.

On to `CCc1c(C)n(CC)c2c(C#N)cnn2c1=O` [Example 191], for which the IC50 was 760 nM.

As for `C=Cc1c(-c2ccccc2)[nH]c2c(C#N)cnn2c1=O` [Example 129], the IC50 worked out at 23 nM.

Take `CC(C)c1c(-c2cnn(Cc3ccccc3)c2)n(C)c2c(C#N)cnn2c1=O` [Example 181]: the IC50 was found to be 60 nM.

Regarding `CC(C)c1c(-c2cncnc2)[nH]c2c(C#N)cnn2c1=O` [Example 61], the IC50 was 10 nM.

Turning to `CC(C)c1c(-c2cnn(Cc3ccccc3)c2)[nH]c2c(C#N)cnn2c1=O` [Example 72], the IC50 came to 10 nM.

`CCc1c(-c2ccoc2)n(C)c2c(C#N)cnn2c1=O` [Example 162]: the IC50 came out at 64 nM.

`COc1ccc(-c2c(C(C)C)c(=O)n3ncc(C#N)c3n2C)cc1` [Example 173]: the IC50 amounted to 39 nM.

Consider `CC(C)c1c(-c2c[nH]nc2C(F)(F)F)[nH]c2c(C#N)cnn2c1=O` [Compound 397], for which the IC50 was 32 nM.

Regarding `Cc1ccc(-c2[nH]c3c(C#N)cnn3c(=O)c2C(C)C)cc1C` [Example 118], the IC50 is 15 nM.

For the compound `CC(C)c1c(-c2ccc(=O)n(C)c2)n(C)c2c(C#N)cnn2c1=O` [Example 188], the IC50 is 240 nM.

As to `COc1cccc(Cn2cc(-c3[nH]c4c(C#N)cnn4c(=O)c3C(C)C)cn2)c1` [Example 99], the IC50 was 6 nM.

For `CC(C)c1c(-c2cccc(/C=C/c3ccccc3)c2)[nH]c2c(C#N)cnn2c1=O` [Compound 394], the IC50 is 20 nM.

As for `CC(C)c1c(-c2cnn(CCN(C)C)c2)[nH]c2c(C#N)cnn2c1=O` [Example 149], the IC50 is 6 nM.

Regarding `CC#CCc1c(-c2ccccc2)[nH]c2c(C#N)cnn2c1=O` [Example 225], the IC50 came to 5400 nM.
